Bounds are passed on as bounds.

Sequence of S-adenosylmethionine synthase isoform type-2 (P31153 whole entry, canonical isoform): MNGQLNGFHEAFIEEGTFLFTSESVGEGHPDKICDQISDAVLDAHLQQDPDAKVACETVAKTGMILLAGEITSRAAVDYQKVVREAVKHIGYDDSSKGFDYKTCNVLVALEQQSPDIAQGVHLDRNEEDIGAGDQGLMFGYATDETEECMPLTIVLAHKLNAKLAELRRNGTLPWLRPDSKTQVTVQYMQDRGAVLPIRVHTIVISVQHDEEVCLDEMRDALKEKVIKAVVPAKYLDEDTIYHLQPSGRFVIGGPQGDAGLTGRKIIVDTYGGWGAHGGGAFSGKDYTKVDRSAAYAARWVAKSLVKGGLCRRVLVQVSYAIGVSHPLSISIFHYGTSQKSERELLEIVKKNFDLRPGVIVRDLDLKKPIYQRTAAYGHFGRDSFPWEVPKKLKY

This assay has as its target S-adenosylmethionine synthase isoform type-2 (Homo sapiens, UniProt P31153). Description: Determination of Mat2A Activity. As for the experimental part: Measurement of Mat2A inhibition is performed in 384 well format absorbance-based assay. Recombinant human Mat2a (12.5 nM) and serial diluted compounds in DMSO (range of concentrations from 10 μM to 508 pM) or controls (DMSO) are incubated for 15 minutes at room temperature (RT) in assay buffer containing 50 mM HEPES pH 7.5, 50 mM KCl, 50 mM MgCl2, 0.01%Tween 20 and 10 mM DTT. The reaction is initiated by the addition of the combined substrates ATP and Methionine, each at a final concentration of 100 μM. Final assay condition are 12.5 nM Mat2A, 100 μM ATP and Methionine Substrates and 2% DMSO. After 120 minutes of incubation at RT, the reaction is stopped by the addition of Biomol Green. The absorbance signal is measured at λ=635 nm with a multiplate reader (BMG Pherastar reader or equivalent) after 30 min of equilibration at RT.
In the case of `CCS(=O)(=O)c1ccc(-c2nccc3[nH]nc(C4CC4)c23)cc1C` [US12565497, Example 20], the IC50 was 15 nM. On to `Cc1cc(-c2c(S(C)(=N)=O)ccc3[nH]nc(C4CC4)c23)ccc1S(C)(=O)=O` (configuration not stated) [US12565497, Example 112], for which the IC50 is 90 nM. Compound `Cc1cc(-c2c(S(C)(=O)=O)ccc3[nH]nc(OC(F)F)c23)ccc1S(=O)(=O)C(F)F` [US12565497, Example 117] yielded an IC50 of under 13 nM.

For `COCCNC(=O)c1ncc2[nH]nc(OC(F)F)c2c1-c1ccc(S(=O)(=O)C(F)F)c(C)c1` [US12565497, Example 109], the IC50 was under 13 nM.

`Cc1cc(-c2c(C(=O)NC3COC3)ncc3[nH]nc(C4CC4)c23)ccc1S(C)(=O)=O` [US12565497, Example 84] registered an IC50 of under 13 nM.

`Cc1cc(-c2c(C(=O)NC3CC3)ncc3[nH]nc(C4CC4)c23)ccc1S(C)(=O)=O` [US12565497, Example 86] came in with an IC50 of under 13 nM.

On to `Cc1cc(-c2c(S(C)(=O)=O)ccc3[nH]nc(OC(F)F)c23)ccc1S(C)(=O)=O` [US12565497, Example 49], for which the IC50 is under 13 nM.

What is called IC50 is the point on the concentration scale where inhibition reaches its midpoint.

The values are drawn from BindingDB's records for patent US12565497 (Hoffmann-La Roche, 2026).
